Test results taken from paper PMC9609714, “Exploring Novel Pyridine Carboxamide Derivatives as Urease Inhibitors: Synthesis, Molecular Docking, Kinetic Studies and ADME Profile” (Pharmaceuticals, 2022).
Where two headings read alike, the source gives them in different places.

What was measured:
urease [1] = molecular target: T1, urease (Canavalia ensiformis, UniProt P07374); experiment: biochemical
Protocol: The indophenol method was adopted for the estimation of urease inhibition activity for synthesized compounds with minor modification. In the assay, the total volume was kept at 100 µL which was composed of 10 µL urease having a concentration of 5 U/mL, 40 µL of phosphate buffer (0.01mM K2HPO4+ EDTA + […]); pH was adjusted to 8.15 using 40 µL of phenol reagent (1%, phenol, and sodium nitroprusside) and alkali reagent. This alkali reagent was composed of 0.5% of sodium hydroxide and 0.1% of active chloride (NaOCl). For the determination of urease activity, the test compound and enzyme were incubated for 30 min at 37 °C in the assay buffer; then phenol/alkali reagent was added. All reactions were performed in 96 well plates in a triplicate manner. Absorbance was measured at a wavelength of 625 nm using the instrument FLUOstar® Omega (BMG LABTECH, Ortenberg, Germany). Initially, the percentage inhibition was estimated for the test compounds and compared with a standard inhibitor of urease (thioureas). […] GraphPad (PRISM 8.0, San Diego, CA, USA) was utilized for the calculations of IC50 values. The synthesized compounds were dissolved in absolute ethanol for the percentage inhibition assay whereas dilutions were prepared in deionized water by keeping the final concentration at up to 1%. The standard inhibitor (thioureas) was used as a positive control in the assay whereas 1% ethanol was employed as a negative control during the assay.

urease [2] = molecular target: T1, urease; experiment: Enzyme kinetics study (Lineweaver–Burk plot) of urease inhibition; type: biochemical; conditions: compound 0.10-1.6 µM
Excerpt: By calculating the Lineweaver–Burk plot, the competitive mode of inhibition was shown by the compound Rx-6.

T1 sequence (P07374 whole entry, looked up): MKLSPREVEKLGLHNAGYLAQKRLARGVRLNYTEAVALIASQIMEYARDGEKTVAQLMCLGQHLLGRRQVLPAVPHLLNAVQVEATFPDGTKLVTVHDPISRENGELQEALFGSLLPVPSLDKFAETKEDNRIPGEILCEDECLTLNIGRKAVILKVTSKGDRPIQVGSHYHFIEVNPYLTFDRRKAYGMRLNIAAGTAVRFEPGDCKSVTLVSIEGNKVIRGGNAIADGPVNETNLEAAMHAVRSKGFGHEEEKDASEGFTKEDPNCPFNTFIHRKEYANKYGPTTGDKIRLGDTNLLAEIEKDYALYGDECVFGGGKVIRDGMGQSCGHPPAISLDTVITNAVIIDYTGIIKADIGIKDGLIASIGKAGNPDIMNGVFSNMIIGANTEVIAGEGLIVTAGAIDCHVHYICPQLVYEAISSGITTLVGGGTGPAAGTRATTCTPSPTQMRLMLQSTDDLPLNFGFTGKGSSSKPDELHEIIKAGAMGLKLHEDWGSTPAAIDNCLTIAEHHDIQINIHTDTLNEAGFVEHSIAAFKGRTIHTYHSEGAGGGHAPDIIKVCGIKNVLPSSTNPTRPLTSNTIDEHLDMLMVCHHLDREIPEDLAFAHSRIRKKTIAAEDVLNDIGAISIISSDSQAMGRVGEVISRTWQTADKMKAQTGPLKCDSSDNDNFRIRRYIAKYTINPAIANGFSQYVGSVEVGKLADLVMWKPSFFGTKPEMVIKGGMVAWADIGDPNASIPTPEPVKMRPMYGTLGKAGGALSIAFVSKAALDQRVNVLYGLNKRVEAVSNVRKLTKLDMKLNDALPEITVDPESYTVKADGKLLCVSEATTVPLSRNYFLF

SMILES	IC50 (urease [1]) [µM]	melting point [°C]	mode of inhibition (Lineweaver–Burk plot) (urease [2])	IC50 (urease [1]; urease 5 U/mL, 30 min at 37 °C, pH 8.15, triplicate, read-out: IC50 ± SEM) [µM]
N/C(S)=N/N=C/c1ccccn1 [Rx-1, Pyridine-2-yl-methylene thiosemicarbazide]	3.23 ± 0.015	–	–	–
NC(=O)N/N=C/c1ccccn1 [Rx-7, 2-Pyridine-2-yl-methylene hydrazine carboxamide]	2.18 ± 0.058	–	–	–
NC(=O)N/N=C/c1cccc(Br)n1 [Rx-9, 6-Bromopyridine-2-yl methylene hydrazinecarboxamide]	14.49 ± 0.067	231 to 233	–	–
NC(=S)N/N=C/c1cccc(C(F)(F)F)n1 [Rx-5, 6-Trifluoromethyl pyridine-2-yl methylene hydrazine-1-carbothioamide]	4.93 ± 0.012	–	–	–
NC(=O)N/N=C/c1cccc(C(F)(F)F)n1 [Rx-11, 6-Trifluoromethyl pyridine-2-yl methylene hydrazine carboxamide]	5.96 ± 0.005	233 to 235	–	–
NC(=S)N/N=C/c1ccc(Cl)cn1 [Rx-6, 5-Chloropyridine-2-yl methylene hydrazinecarbothioamide]	1.07 ± 0.043	244 to 246	competitive	–
COc1cccc(/C=N/NC(N)=S)n1 [Rx-4, 6-Methoxypyridine-2-yl methylene thiosemicarbazide]	4.21 ± 0.022	–	–	–
COc1cccc(/C=N/NC(N)=O)n1 [Rx-10, 6-Methoxypyridine-2-yl methylene hydrazine carboxamide]	5.52 ± 0.072	193	–	–
NC(=S)N/N=C/c1cccc(Br)n1 [Rx-3, 6-Bromopyridine-2-yl methylene hydrazine-1-carbothioamide]	3.13 ± 0.034	192 to 194	–	–
NC(=O)N/N=C/c1ccc(Cl)cn1 [Rx-12, 5-Chloropyridine-2yl-methylene hydrazine carboxamide]	4.07 ± 0.003	221 to 223	–	–
Cc1cccc(/C=N/NC(N)=S)n1 [Rx-2, 6-Methylpyridine-2-yl methylene hydrazine-1-carbothioamide]	6.41 ± 0.023	–	–	–
NC(N)=S [Thiourea, reference compound]	–	–	–	18.93 ± 0.004
Cc1cccc(/C=N/NC(N)=O)n1 [Rx-8, 6-Methylpyridine-2-yl methylene hydrazinecarboxamide]	3.41 ± 0.011	218 to 219	–	–
